Measurements from ChEMBL document CHEMBL5518174 (Eur J Med Chem, 2024).

Key:
[1] = Downregulation of HDAC9 protein expression in human NCI-H1975 cells assessed as fold change at 0.1 uM incubated for 24 hrs by immunoblotting analysis (reference value: 1); format: functional
[2] = Downregulation of HDAC6 protein expression in human NCI-H1975 cells assessed as fold change at 0.1 uM incubated for 24 hrs by immunoblotting analysis (reference value: 1); format: functional
[3] = Effect on HDAC5 protein expression in human NCI-H1975 cells assessed as fold change at 0.05 uM incubated for 24 hrs by immunoblotting analysis (reference value: 1); format: functional
[4] = Downregulation of HDAC3 protein expression in human NCI-H1975 cells assessed as fold change at 0.1 uM incubated for 24 hrs by immunoblotting analysis (reference value: 1); format: functional
[5] = Effect on HDAC8 protein expression in human MDA-MB-231 cells assessed as fold change at 0.05 uM incubated for 24 hrs by immunoblotting analysis (reference value: 1); format: functional
[6] = Downregulation of HDAC10 protein expression in human MDA-MB-231 cells assessed as fold change at 0.1 uM incubated for 24 hrs by immunoblotting analysis (reference value: 1); format: functional
[7] = biological target: T1, Polyamine deacetylase HDAC10 (Homo sapiens, UniProt Q969S8); experiment: Inhibition of recombinant human HDAC10 using acetylated luminogenic substrate incubated for 10 mins by ultra-glo recombinant firefly luciferase based luminescence assay
T1 sequence (Q969S8 whole entry): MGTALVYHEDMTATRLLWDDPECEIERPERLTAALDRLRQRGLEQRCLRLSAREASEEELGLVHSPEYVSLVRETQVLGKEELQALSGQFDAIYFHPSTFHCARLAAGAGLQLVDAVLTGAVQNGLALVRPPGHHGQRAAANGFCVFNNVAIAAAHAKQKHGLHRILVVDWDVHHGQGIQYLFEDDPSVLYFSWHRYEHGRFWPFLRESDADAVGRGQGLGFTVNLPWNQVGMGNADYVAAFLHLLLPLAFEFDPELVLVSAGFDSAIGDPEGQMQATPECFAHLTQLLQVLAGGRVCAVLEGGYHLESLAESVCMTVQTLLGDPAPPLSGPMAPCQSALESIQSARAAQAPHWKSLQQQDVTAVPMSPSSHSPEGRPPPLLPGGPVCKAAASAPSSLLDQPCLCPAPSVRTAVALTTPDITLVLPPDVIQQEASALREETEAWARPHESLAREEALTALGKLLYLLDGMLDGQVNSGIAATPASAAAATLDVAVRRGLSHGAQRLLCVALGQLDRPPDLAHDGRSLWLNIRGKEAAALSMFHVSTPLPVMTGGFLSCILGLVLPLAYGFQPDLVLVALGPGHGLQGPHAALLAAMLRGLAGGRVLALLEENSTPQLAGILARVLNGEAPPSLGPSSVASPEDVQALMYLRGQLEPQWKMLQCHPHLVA

[8] = Toxicity in athymic nude BALB/c mouse xenografted with human MDA-MB-231 cells assessed as effect on BUN level in serum at 3 mg/kg, ip administered 5 times a week for 7 weeks; format: organism-based; conditions: in vivo, 1176 h
NCI-H1975 = experiment: Antitumor activity against human NCI-H1975 cells xenografted in athymic nude BALB/c mouse assessed as average tumor size at 6 mg/kg, ip administered 5 times a week for 3 weeks and measured on day 22 (reference value: 776.4 +/- 118.1 mm3); format: functional; conditions: time 22 day
MDA-MB-231 = experiment: Antitumor activity against human MDA-MB-231 cells xenografted in athymic nude BALB/c mouse assessed as average tumor size at 3 mg/kg, ip administered 5 times a week for 7 weeks and measured on day 47 (reference value: 15.4 +/- 5.3 mm3); format: functional; conditions: time 47 day
[9] = Upregulation of acetylated H4 protein expression in human MDA-MB-231 cells assessed as fold change at 0.05 uM incubated for 24 hrs by immunoblotting analysis (reference value: 1); format: functional
[10] = Effect on HDAC2 protein expression in human MDA-MB-231 cells assessed as fold change at 0.1 uM incubated for 24 hrs by immunoblotting analysis (reference value: 1); format: functional
[11] = Downregulation of HDAC4 protein expression in human NCI-H1975 cells assessed as fold change at 0.1 uM incubated for 24 hrs by immunoblotting analysis (reference value: 1); format: functional
Histone deacetylase 8 = biological target: T2, Histone deacetylase 8 (Homo sapiens, UniProt Q9BY41); experiment: Inhibition of recombinant human HDAC8 using acetylated luminogenic substrate incubated for 10 mins by ultra-glo recombinant firefly luciferase based luminescence assay
T2 sequence (Q9BY41 whole entry): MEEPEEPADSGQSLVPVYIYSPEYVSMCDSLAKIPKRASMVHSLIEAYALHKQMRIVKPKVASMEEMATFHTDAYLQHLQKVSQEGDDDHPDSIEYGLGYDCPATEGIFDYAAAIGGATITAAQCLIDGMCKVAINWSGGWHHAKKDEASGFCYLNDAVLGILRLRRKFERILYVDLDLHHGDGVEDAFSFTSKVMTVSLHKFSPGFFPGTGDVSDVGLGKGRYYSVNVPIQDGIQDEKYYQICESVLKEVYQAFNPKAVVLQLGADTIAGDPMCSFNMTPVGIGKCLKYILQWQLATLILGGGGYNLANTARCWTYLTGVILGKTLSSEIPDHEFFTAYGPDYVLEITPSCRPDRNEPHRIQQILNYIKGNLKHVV

[12] = Downregulation of HDAC1 protein expression in human NCI-H1975 cells assessed as fold change at 0.1 uM incubated for 24 hrs by immunoblotting analysis (reference value: 1); format: functional
Histone deacetylase 5 = Histone deacetylase 5 (Homo sapiens, UniProt Q9UQL6); experiment: Inhibition of recombinant human HDAC5 using acetylated luminogenic substrate incubated for 10 mins by ultra-glo recombinant firefly luciferase based luminescence assay
Histone deacetylase 5, sequence (Q9UQL6 whole entry): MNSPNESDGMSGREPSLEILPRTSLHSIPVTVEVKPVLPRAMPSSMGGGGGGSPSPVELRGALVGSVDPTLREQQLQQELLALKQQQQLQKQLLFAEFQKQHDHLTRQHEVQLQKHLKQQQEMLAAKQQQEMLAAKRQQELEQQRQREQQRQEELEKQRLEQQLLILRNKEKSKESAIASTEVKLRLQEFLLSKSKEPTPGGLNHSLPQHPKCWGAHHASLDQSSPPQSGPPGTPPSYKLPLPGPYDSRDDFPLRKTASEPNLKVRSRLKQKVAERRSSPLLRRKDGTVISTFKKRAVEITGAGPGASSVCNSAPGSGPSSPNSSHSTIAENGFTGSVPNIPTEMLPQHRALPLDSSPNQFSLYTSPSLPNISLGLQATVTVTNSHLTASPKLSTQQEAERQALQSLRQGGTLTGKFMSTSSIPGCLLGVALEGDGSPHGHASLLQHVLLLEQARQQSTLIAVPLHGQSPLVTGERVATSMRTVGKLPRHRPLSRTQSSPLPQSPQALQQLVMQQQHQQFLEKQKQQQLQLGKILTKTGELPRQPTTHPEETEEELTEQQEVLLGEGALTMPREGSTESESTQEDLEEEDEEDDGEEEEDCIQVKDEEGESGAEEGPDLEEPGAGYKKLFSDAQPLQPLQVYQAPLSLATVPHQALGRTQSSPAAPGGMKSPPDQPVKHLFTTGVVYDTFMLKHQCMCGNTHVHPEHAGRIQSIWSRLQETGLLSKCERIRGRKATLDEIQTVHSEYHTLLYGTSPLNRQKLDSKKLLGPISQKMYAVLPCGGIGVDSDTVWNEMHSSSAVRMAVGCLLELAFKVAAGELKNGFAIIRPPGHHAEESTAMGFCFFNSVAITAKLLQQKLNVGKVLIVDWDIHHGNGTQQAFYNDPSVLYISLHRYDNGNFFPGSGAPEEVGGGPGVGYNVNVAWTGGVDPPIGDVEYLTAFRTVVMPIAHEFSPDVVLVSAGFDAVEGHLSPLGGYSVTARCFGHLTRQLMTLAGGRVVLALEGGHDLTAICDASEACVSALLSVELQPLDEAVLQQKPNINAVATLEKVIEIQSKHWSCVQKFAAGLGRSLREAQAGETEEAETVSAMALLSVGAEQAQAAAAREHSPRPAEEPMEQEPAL

Histone deacetylase 4 = Histone deacetylase 4 (Homo sapiens, UniProt P56524); experiment: Inhibition of recombinant human HDAC4 using acetylated luminogenic substrate incubated for 10 mins by ultra-glo recombinant firefly luciferase based luminescence assay
Histone deacetylase 4, sequence (P56524 whole entry): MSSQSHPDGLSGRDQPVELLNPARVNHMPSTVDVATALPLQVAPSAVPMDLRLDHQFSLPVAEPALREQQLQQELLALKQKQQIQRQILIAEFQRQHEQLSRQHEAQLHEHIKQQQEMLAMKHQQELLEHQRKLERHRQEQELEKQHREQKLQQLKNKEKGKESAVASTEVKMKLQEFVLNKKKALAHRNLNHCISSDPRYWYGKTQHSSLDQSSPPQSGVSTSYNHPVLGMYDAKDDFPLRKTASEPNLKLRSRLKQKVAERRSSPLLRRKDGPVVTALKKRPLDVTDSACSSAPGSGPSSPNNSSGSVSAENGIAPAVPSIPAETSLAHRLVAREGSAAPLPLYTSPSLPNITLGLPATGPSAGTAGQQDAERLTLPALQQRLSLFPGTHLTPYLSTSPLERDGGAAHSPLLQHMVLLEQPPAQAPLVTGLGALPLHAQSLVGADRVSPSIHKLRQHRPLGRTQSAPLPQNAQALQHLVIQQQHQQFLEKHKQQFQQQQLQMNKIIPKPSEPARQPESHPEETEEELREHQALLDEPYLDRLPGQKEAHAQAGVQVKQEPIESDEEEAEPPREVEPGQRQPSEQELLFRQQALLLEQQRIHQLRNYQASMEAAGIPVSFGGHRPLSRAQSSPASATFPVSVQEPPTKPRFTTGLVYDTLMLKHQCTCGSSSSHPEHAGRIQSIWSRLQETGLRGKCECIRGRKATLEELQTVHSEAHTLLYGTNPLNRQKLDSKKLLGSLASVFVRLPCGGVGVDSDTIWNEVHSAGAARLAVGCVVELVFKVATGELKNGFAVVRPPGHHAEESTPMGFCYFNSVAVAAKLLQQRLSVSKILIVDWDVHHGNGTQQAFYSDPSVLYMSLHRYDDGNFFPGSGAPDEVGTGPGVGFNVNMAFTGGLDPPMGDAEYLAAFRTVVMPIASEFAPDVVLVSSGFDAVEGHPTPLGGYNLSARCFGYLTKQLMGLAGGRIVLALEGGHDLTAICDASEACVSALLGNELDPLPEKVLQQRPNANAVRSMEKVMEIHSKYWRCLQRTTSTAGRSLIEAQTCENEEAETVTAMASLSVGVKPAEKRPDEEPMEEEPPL

[13] = Effect on HDAC4 protein expression in human NCI-H1975 cells assessed as fold change at 0.05 uM incubated for 24 hrs by immunoblotting analysis (reference value: 1); format: functional
[14] = Effect on HDAC10 protein expression in human NCI-H1975 cells assessed as fold change at 0.05 uM incubated for 24 hrs by immunoblotting analysis (reference value: 1); format: functional
[15] = Upregulation of acetylated H4 protein expression in human MDA-MB-231 cells assessed as fold change at 0.1 uM incubated for 24 hrs by immunoblotting analysis (reference value: 1); format: functional
Histone deacetylase 2 = Histone deacetylase 2 (Homo sapiens, UniProt Q92769); experiment: Inhibition of recombinant human HDAC2 using acetylated luminogenic substrate incubated for 10 mins by ultra-glo recombinant firefly luciferase based luminescence assay
Histone deacetylase 2, sequence (Q92769 whole entry): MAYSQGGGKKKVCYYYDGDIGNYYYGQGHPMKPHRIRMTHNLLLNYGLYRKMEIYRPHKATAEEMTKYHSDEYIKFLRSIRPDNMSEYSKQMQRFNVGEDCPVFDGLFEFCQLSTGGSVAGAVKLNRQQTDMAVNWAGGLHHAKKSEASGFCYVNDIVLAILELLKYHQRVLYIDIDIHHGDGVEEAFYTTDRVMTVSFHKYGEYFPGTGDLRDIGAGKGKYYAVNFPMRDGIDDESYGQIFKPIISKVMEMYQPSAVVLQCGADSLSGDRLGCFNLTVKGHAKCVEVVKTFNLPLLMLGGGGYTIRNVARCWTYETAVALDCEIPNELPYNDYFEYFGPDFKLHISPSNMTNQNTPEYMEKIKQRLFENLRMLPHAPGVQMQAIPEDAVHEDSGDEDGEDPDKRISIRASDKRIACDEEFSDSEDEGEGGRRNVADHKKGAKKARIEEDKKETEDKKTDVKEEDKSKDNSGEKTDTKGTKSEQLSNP

Histone deacetylase 1 = Histone deacetylase 1 (Homo sapiens, UniProt Q13547); experiment: Inhibition of recombinant human HDAC1 using acetylated luminogenic substrate incubated for 10 mins by ultra-glo recombinant firefly luciferase based luminescence assay
Histone deacetylase 1, sequence (Q13547 whole entry): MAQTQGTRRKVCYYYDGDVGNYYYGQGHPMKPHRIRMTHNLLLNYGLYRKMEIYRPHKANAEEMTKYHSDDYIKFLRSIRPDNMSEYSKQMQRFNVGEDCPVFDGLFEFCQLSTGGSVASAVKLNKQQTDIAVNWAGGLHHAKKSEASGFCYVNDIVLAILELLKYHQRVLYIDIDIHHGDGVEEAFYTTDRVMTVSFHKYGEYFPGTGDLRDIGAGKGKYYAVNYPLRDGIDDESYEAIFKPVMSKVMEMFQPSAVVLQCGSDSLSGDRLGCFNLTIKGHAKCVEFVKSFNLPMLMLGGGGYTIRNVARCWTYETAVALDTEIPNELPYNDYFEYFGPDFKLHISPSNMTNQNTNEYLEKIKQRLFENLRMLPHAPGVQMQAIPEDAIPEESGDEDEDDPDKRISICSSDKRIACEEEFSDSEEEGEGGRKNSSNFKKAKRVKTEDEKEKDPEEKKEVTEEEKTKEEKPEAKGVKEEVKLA

[16] = Effect on HDAC8 protein expression in human MDA-MB-231 cells assessed as fold change at 0.1 uM incubated for 24 hrs by immunoblotting analysis (reference value: 1); format: functional

- IC50 [7]: 18.9 nM
- IC50 (Histone deacetylase 8): 138 nM
- IC50 (Histone deacetylase 5): > 1000 nM
- IC50 (Histone deacetylase 4): > 1000 nM
- IC50 (Histone deacetylase 2): 11.5 nM
- IC50 (Histone deacetylase 1): 5.1 nM
SMILES: CCOc1ccc(-c2nc(C(=O)NCc3ccc(C(=O)NO)cc3)c3[nH]c(=O)n(-c4cccnc4OC)c3n2)cn1
- fold change (FC) [1]: 0.33
- fold change (FC) [2]: 0.41
- fold change (FC) [3]: 2.38
- fold change (FC) [4]: 0.37
- fold change (FC) [5]: 1.7
- fold change (FC) [6]: 0.88
- Activity [8]: Non-Toxic
- Activity (NCI-H1975): 331.8 mm3
- Activity (MDA-MB-231): 1.7 mm3
- fold change (FC) [9]: 1.74
- fold change (FC) [10]: 1.25
- fold change (FC) [11]: 0.6
- fold change (FC) [12]: 0.95
- fold change (FC) [13]: 1.33
- fold change (FC) [14]: 1.09
- fold change (FC) [15]: 2.91
- fold change (FC) [16]: 1.08
